Laboratory results from BindingDB's records for doi:10.1021/jm051146h (Conforma Therapeutics, 2006).

biological target: Heat shock protein HSP 90-beta (Homo sapiens, UniProt P08238); experiment: Her-2 Degradation Assay; conditions: not given
Protocol: A fluorescence histogram was generated, and the mean fluorescence intensity (MFI) of each sample was determined using Cellquest software.

Chain of Heat shock protein HSP 90-beta (P08238 whole entry): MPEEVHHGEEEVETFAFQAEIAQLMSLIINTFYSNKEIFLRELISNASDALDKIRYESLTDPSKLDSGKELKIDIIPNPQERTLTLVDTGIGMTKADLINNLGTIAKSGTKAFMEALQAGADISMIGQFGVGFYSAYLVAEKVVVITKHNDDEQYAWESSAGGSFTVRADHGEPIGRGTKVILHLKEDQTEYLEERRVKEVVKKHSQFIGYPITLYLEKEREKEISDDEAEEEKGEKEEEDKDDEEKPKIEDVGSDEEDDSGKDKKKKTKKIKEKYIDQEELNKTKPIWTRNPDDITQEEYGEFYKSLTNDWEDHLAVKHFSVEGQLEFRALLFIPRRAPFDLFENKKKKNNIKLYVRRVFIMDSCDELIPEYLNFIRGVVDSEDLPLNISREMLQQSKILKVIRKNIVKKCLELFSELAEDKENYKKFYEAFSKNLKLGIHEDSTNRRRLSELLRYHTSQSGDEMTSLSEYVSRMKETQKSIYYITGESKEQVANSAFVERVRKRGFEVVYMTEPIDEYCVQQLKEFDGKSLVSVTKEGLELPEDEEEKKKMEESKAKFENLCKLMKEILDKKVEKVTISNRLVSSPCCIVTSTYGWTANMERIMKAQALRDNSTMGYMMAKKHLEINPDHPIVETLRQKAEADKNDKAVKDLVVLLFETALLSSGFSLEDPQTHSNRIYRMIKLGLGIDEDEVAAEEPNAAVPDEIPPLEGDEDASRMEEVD

| SMILES | EC50 [nM] |
| --- | --- |
| CC(C)(C)NCCCn1c(Sc2nc3cccc(Cl)c3s2)nc2c(N)ncnc21 [9-[3-(tert-butylamino)propyl]-8-[(7-chloro-1,3-benzothiazol-2-yl)sulfanyl]-9H-purin-6-amine] | 150 |
| CC(C)(C)CNCCn1c(Sc2nc3cccc(Cl)c3s2)nc2c(N)ncnc21 | 35 |
| CCCCn1c(Sc2nc3cncc(Br)c3s2)nc2c(N)ncnc21 [8-({7-bromopyrido[3,4-d][1,3]thiazol-2-yl}sulfanyl)-9-butyl-9H-purin-6-amine] | 400 |
| CC(C)NCCCn1c(Sc2nc3cccc(Cl)c3s2)nc2c(N)ncnc21 [8-[(7-chloro-1,3-benzothiazol-2-yl)sulfanyl]-9-[3-(propan-2-ylamino)propyl]-9H-purin-6-amine] | 170 |
| CC(C)(C)NCCn1c(Sc2nc3cccc(Cl)c3s2)nc2c(N)ncnc21 [9-[2-(tert-butylamino)ethyl]-8-[(7-chloro-1,3-benzothiazol-2-yl)sulfanyl]-9H-purin-6-amine] | 140 |
| CCCCn1c(Sc2nc3cncc(Cl)c3s2)nc2c(N)ncnc21 [9-butyl-8-({7-chloropyrido[3,4-d][1,3]thiazol-2-yl}sulfanyl)-9H-purin-6-amine] | 280 |
| Nc1ncnc2c1nc(Sc1nc3cccc(Cl)c3s1)n2CCNC1CC1 [8-[(7-chloro-1,3-benzothiazol-2-yl)sulfanyl]-9-[2-(cyclopropylamino)ethyl]-9H-purin-6-amine] | 110 |
| CC(=O)OCCCn1c(Sc2nc3cncc(Cl)c3s2)nc2c(N)ncnc21 [3-[6-amino-8-({7-chloropyrido[3,4-d][1,3]thiazol-2-yl}sulfanyl)-9H-purin-9-yl]propyl acetate] | 170 |

same assay, conditions: pH 7.2; 37 °C

| SMILES | EC50 [nM] |
| --- | --- |
| CC(=O)OCCn1c(Sc2nc3cccc(Cl)c3s2)nc2c(N)ncnc21 [2-{6-amino-8-[(7-chloro-1,3-benzothiazol-2-yl)sulfanyl]-9H-purin-9-yl}ethyl acetate] | 150 |
| CCCCn1c(Sc2nc3cccc(C)c3s2)nc2c(N)ncnc21 [9-butyl-8-[(7-methyl-1,3-benzothiazol-2-yl)sulfanyl]-9H-purin-6-amine] | 300 |
| CCCCn1c(Sc2nc3ccc(Cl)cc3s2)nc2c(N)ncnc21 [9-butyl-8-[(6-chloro-1,3-benzothiazol-2-yl)sulfanyl]-9H-purin-6-amine] | 7000 |
| CCCCn1c(Sc2nc3cccc(Cl)c3s2)nc2c(N)ncnc21 | 180 |
| CCCCn1c(Sc2nc3c(Cl)cccc3s2)nc2c(N)ncnc21 [9-butyl-8-[(4-chloro-1,3-benzothiazol-2-yl)sulfanyl]-9H-purin-6-amine] | 15000 |
| N#CCCCCn1c(Sc2nc3cccc(Cl)c3s2)nc2c(N)ncnc21 [5-{6-amino-8-[(7-chloro-1,3-benzothiazol-2-yl)sulfanyl]-9H-purin-9-yl}pentanenitrile] | 110 |
| Nc1ncnc2c1nc(Sc1nc3cccc(Cl)c3s1)n2CCO [2-{6-amino-8-[(7-chloro-1,3-benzothiazol-2-yl)sulfanyl]-9H-purin-9-yl}ethan-1-ol] | 300 |
| Nc1ncnc2c1nc(Sc1nc3cccc(Cl)c3s1)n2CCN1CCOCC1 [8-[(7-chloro-1,3-benzothiazol-2-yl)sulfanyl]-9-[2-(morpholin-4-yl)ethyl]-9H-purin-6-amine] | 250 |
| Nc1ncnc2c1nc(Sc1nc3cccc(Cl)c3s1)n2CCCO [3-{6-amino-8-[(7-chloro-1,3-benzothiazol-2-yl)sulfanyl]-9H-purin-9-yl}propan-1-ol] | 150 |
| CCCCn1c(Sc2nc3ccc(Cl)c(Cl)c3s2)nc2c(N)ncnc21 [9-butyl-8-[(6,7-dichloro-1,3-benzothiazol-2-yl)sulfanyl]-9H-purin-6-amine] | 25000 |
| CCCn1c(Sc2nc3cccc(Cl)c3s2)nc2c(N)ncnc21 [8-[(7-chloro-1,3-benzothiazol-2-yl)sulfanyl]-9-propyl-9H-purin-6-amine] | 250 |
| CCCCCn1c(Sc2nc3cccc(Cl)c3s2)nc2c(N)ncnc21 [8-[(7-chloro-1,3-benzothiazol-2-yl)sulfanyl]-9-pentyl-9H-purin-6-amine] | 700 |
| CCn1c(Sc2nc3cccc(Cl)c3s2)nc2c(N)ncnc21 [8-[(7-chloro-1,3-benzothiazol-2-yl)sulfanyl]-9-ethyl-9H-purin-6-amine] | 200 |
| CCCCn1c(Sc2nc3cccc(Br)c3s2)nc2c(N)ncnc21 [8-[(7-bromo-1,3-benzothiazol-2-yl)sulfanyl]-9-butyl-9H-purin-6-amine] | 330 |
| Nc1ncnc2c1nc(Sc1nc3cccc(Cl)c3s1)n2CCCCO [4-{6-amino-8-[(7-chloro-1,3-benzothiazol-2-yl)sulfanyl]-9H-purin-9-yl}butan-1-ol] | 150 |
| CCCCn1c(Sc2nc3cccc(F)c3s2)nc2c(N)ncnc21 [9-butyl-8-[(7-fluoro-1,3-benzothiazol-2-yl)sulfanyl]-9H-purin-6-amine] | 200 |
| CC(=O)OCCCCn1c(Sc2nc3cccc(Cl)c3s2)nc2c(N)ncnc21 [4-{6-amino-8-[(7-chloro-1,3-benzothiazol-2-yl)sulfanyl]-9H-purin-9-yl}butyl acetate] | 130 |
| CCCCn1c(Sc2nc3cccc(OC)c3s2)nc2c(N)ncnc21 [9-butyl-8-[(7-methoxy-1,3-benzothiazol-2-yl)sulfanyl]-9H-purin-6-amine] | 190 |
| CCCCn1c(Sc2nc3ccccc3s2)nc2c(N)ncnc21 [8-(1,3-benzothiazol-2-ylsulfanyl)-9-butyl-9H-purin-6-amine] | 5000 |
| CC(=O)OCCCn1c(Sc2nc3cccc(Cl)c3s2)nc2c(N)ncnc21 [3-{6-amino-8-[(7-chloro-1,3-benzothiazol-2-yl)sulfanyl]-9H-purin-9-yl}propyl acetate] | 90 |
| CCCCn1c(Sc2nc3cccc(OCC)c3s2)nc2c(N)ncnc21 [9-butyl-8-[(7-ethoxy-1,3-benzothiazol-2-yl)sulfanyl]-9H-purin-6-amine] | 100000 |
